Patent US20110130449A1, “Assay for Monitoring Activity of Jmjd6” (Isis Innovation Limited, priority 2008, published 2011)
Square brackets hold non-standard residues; d marks the D form. Ends that are not written are not given here. Arg(Me2s) = CN=C(NC)NCCC[C@H](N)C(=O)O

Experiments:
Jmjd6 [1] = target: T1, Jmjd6 (Homo sapiens, UniProt Q6NYC1); test: biochemical; assay type: biochemical; settings: for inhibitory effect on Jmjd6 activity / rank of inhibition of Jmjd6 activity (in words): 100 μM inhibitor, substrate peptide d; for hydroxylation of peptide d, as observed by MALDI: 100 μM compound added to assay; for enhancers of Jmjd6 activity (statement): chelating agents
Experimental: (§1) Standard assays consisted of the substrate mixture: peptide (100 μM), 2OG (500 μM), ascorbate (100 μM) in Tris (50 mM, pH 7.5); and the enzyme mixture: FeNH4SO4 (100 μM) and Jmjd6 (10 μM) in Tris (50 mM, pH 7.5). The reaction was initiated by mixing the substrate and enzyme mixtures and incubating at 37° C. for 30-60 minutes. The reaction was quenched by adding TFA to a final concentration of 0.1% and incubating on ice. Hydroxylation of the peptide was analysed by a MALDI TOF micro MX mass spectrometer (Waters Micromass); where the assay mixture (1 μL), along with α-cyano-4-hydroxycinnamic acid MALDI (CHCA) matrix in 60% acetonitrile/0.1% TFA (1 μL), was spotted directly onto the target plate. To determine whether modification of peptide was Jmjd6-dependent assays were performed omitting either 2OG or Fe(II). To determine whether Jmjd6 was inhibited by N-oxaloylglycine (NOG), NOG (24 mM) was added to the substrate component of the assay system.
To determine the pH profile of Jmd6 standard peptide assays were performed over a pH range of 6 to 9. Buffers used were piperazine-N,N′-bis(ethanesulfonic acid) (PIPES) (pH 6.0 and 6.5), 4-(2-hydroxyethyl)-1-piperazineethanesulfonic acid (HEPES) (pH 7.0 to 8.0) and N,N-bis(2-hydroxyethyl) glycine (BICINE) (pH 8.5 and 9.0). Inhibition assays were performed under identical conditions as described for the standard assays except either succinate (1 mM) or fumarate (1 mM) were included in the substrate mixture.
A control without inhibitor was included as a reference.

Jmjd6 [2] = target: T1, Jmjd6; test: Standard assay for Jmjd6 oxygenase activity: peptide hydroxylation by MALDI-TOF MS; assay type: biochemical; settings: for activity (hydroxylation of LUC7-like2 peptides): Table 4, standard assay conditions; for mass shift relative to un-reacted peptide: incubation with Jmjd6, oxygen, ascorbate, Fe(II), 2OG, MALDI-TOF MS
Excerpt: All peptides tested as potential substrates of Jmjd6 were synthesised in-house by a Intavis MultiPep automated multiple synthesiser, using Tentagel amide resin (Intavis). Fluorenylmethoxycarbonyl (Fmoc)-protected amino acids were coupled with N,N′-diisopropylcarbodiimide (DIC)/1-hydroxybenzotriazole (HOBt). Cleavage of the completed peptides from the resin used CF3CO2H (TFA)/[…]. Predicted masses were confirmed by MALDI-TOF mass spectrometry. Standard assay conditions were used and are described above.
To determine whether U2AF65, CROP and LUC7-like2 were substrates of Jmjd6, multiple peptides were synthesized based on the RS domains of these proteins (FIG. 8). Initial peptides were synthesized with dimethylated arginine residues because it was speculated that Jmjd6 may be an arginine demethylase (FIG. 9). To determine whether any of these peptides were Jmjd6 substrates, incubations were carried out in the presence of oxygen, ascorbate, Fe(II) and 2OG; and peptide modifications were analyzed by MALDI-TOF MS.

[3] = tested on: full-length Jmjd6 (SEQ ID NO:1), Jmjd6 residues 1 to 343, Jmjd6 residues 25 to 338; settings: peptide d 100 μM; FIGS. 18 and 19
Experimental: as §1

[4] = succinate (1 mM) or fumarate (1 mM) in substrate mixture

Compound: O=C(O)c1c[nH]c2c(ccc3cccnc32)c1=O [FG0041]
- inhibitory of Jmjd6 lysyl hydroxylase activity (statement) (Jmjd6 [1]): inhibitory
- inhibitory effect on Jmjd6 activity (Jmjd6 [1]): ~50%

Compound: 23 (NPKRSRSKEHKK) [No 23]
- activity (hydroxylation of LUC7-like2 peptides) (Jmjd6 [2]): yes

Compound: O=C(O)/C=C/C(=O)O [fumarate]
- inhibitory of Jmjd6 lysyl hydroxylase activity (statement) (Jmjd6 [1]): inhibitory
- rank of inhibition of Jmjd6 activity (in words) (Jmjd6 [1]): most potent inhibitors
- inhibition of the +16 mass shift in peptide d (Jmjd6 [1]; [4]): completely inhibited

Compound: 21 (NPKKSKSKEHRR) [No 21]
- activity (hydroxylation of LUC7-like2 peptides) (Jmjd6 [2]): double

Compound: O=C(O)c1ccc(C(=O)O)nc1 [pyridine-2,5-dicarboxylic acid]
- hydroxylation of peptide d, as observed by MALDI (Jmjd6 [1]): 100%
- enhancers of Jmjd6 activity (statement) (Jmjd6 [1]): Enhancers

Compound: O=c1c(-c2ccc(O)cc2)coc2cc(O)cc(O)c12 [genistein]
- inhibitory of Jmjd6 lysyl hydroxylase activity (statement) (Jmjd6 [1]): inhibitory

Compound: O=C(O)CCC(=O)O [succinate]
- inhibitory of Jmjd6 lysyl hydroxylase activity (statement) (Jmjd6 [1]): inhibitory
- rank of inhibition of Jmjd6 activity (in words) (Jmjd6 [1]): most potent inhibitors
- inhibition of the +16 mass shift in peptide d (Jmjd6 [1]; [4]): completely inhibited

Compound: O=C(O)c1cccc(C(=O)O)n1 [pyridine-2,6-dicarboxylic acid]
- hydroxylation of peptide d, as observed by MALDI (Jmjd6 [1]): 100%
- enhancers of Jmjd6 activity (statement) (Jmjd6 [1]): Enhancers

Compound: O=C(O)CNC(=O)C(=O)O [NOG, N-oxalylglycine]
- inhibitory of Jmjd6 lysyl hydroxylase activity (statement) (Jmjd6 [1]): inhibitory
- inhibition of hydroxylation of peptide d, as observed by MALDI (Jmjd6 [1]; 12 mM NOG in the assay mixture): completely inhibited
- inhibition of the +16 mass shift in peptide d (Jmjd6 [1]; NOG 24 mM added to substrate component, FIG. 11 legend 120 mM): completely inhibited
- inhibition at 100 µM (Jmjd6 [1]; read-out: inhibitory effect on Jmjd6 activity): < 20%

Compound: NPKRSRSREHRR [No 12]
- hydroxylation of peptide d by truncated and full-length Jmjd6 [3]: hydroxylated

Compound: NPKRSRSR(Me2sym))EHRRHRSR (chain 1 NPKRSRS[Arg(Me2s)]; also: chains 1 and 2 form one continuous peptide) [No 1]
- mass shift relative to un-reacted peptide (Jmjd6 [2]): +16

Compound: SHSRSRSR(Me2sym)DRKRRSRS (chain 1 SHSRSRS[Arg(Me2s)]; also: chains 1 and 2 form one continuous peptide) [No 9]
- mass shift relative to un-reacted peptide (Jmjd6 [2]): +16

Compound: 24 (NPKRSRSREHKK) [No 24]
- activity (hydroxylation of LUC7-like2 peptides) (Jmjd6 [2]): yes

Compound: 20 (NPKKSKSREHRR) [No 20]
- activity (hydroxylation of LUC7-like2 peptides) (Jmjd6 [2]): double

Compound: O=C(O)c1ccnc(C(=O)O)c1 [pyridine-2,4-dicarboxylic acid]
- inhibitory of Jmjd6 lysyl hydroxylase activity (statement) (Jmjd6 [1]): inhibitory
- rank of inhibition of Jmjd6 activity (in words) (Jmjd6 [1]): most potent inhibitors

Compound: O=C(O)CNC(=O)c1nc(Cl)c2ccccc2c1O [FG2216]
- inhibitory of Jmjd6 lysyl hydroxylase activity (statement) (Jmjd6 [1]): inhibitory
- inhibitory effect on Jmjd6 activity (Jmjd6 [1]): ~50%

Compound: 22 (NPKKSKSKEHKK) [No 22]
- activity (hydroxylation of LUC7-like2 peptides) (Jmjd6 [2]): double

Compound: SHSRSR(Me2sym)SRDRKRRSRS ({Ser-H2N-Ser-Arg-Ser-(R(Me2sym))}-SRDRKRRSRS) [No 10]
- mass shift relative to un-reacted peptide (Jmjd6 [2]): +16
